Laboratory results as given in patent US11077090B2, “Compounds and compositions and uses thereof” (Sunovion Pharmaceuticals Inc., priority 2016, dated 2021).
Structures can show the parent of a compound that is named as a salt. Where two headings read alike, the source gives them in different places.

System: compound-treated mice
Test: Neuropharmacological assay (SmartCube): behavioral activity signature and minimal effective dose
Type: in vivo
Settings: for minimal effective dose: Mus musculus, ip; for AD: ADHD (probability of activity signature) / AG: analgesic (probability of activity signature) / AX: anxiolytic (probability of activity signature) / CE: cognitive enhancer (probability of activity signature) / DP: anti-depressant (probability of activity signature) / MS: mood stabilizer (probability of activity signature) / PS: anti-psychotic (probability of activity signature) / SD: sedative hypnotic (probability of activity signature) / UN: uncharacterized CNS activity (probability of activity signature): i.p. 15 min before test, most efficacious dose(s)
Procedure, shortened: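 Video-recorded behavior is compared algorithmically against a reference-compound database, yielding class probabilities (best dose reported). Compounds given i.p. in NMP/PEG/propylene glycol 15 min pre-test at 3 doses; potency as MED, the dose (mpk, range usually 0.3–30) reaching ≥50% total activity.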

[1] = MED = dose having 50% or more total activity, read-out: Potency: minimal effective dose (MED), binned
[2] = MED = dose having 50% or more total activity, read-out: Potency: minimal effective dose (MED)

Compound	minimal effective dose [1] [mg/kg]	AD: ADHD (probability of activity signature)	AG: analgesic (probability of activity signature)	AX: anxiolytic (probability of activity signature)	CE: cognitive enhancer (probability of activity signature)	DP: anti-depressant (probability of activity signature)	MS: mood stabilizer (probability of activity signature)	PS: anti-psychotic (probability of activity signature)	SD: sedative hypnotic (probability of activity signature)	UN: uncharacterized CNS activity (probability of activity signature)	minimal effective dose [2] [mg/kg]	Potency: minimal effective dose (MED), binned (MED = dose having 50% or more total activity)
C[C@@H]1OC[C@@H](N(C)C)c2ccccc21 (stereo in doubt) [Example 239, cis-N,N,1-trimethylisochroman-4-amine hydrochloride]	3 to 10	++ (5% ≤ ++ <25%)	++ (5% ≤ ++ <25%)	++ (5% ≤ ++ <25%)	++ (5% ≤ ++ <25%)	++ (5% ≤ ++ <25%)	+ (LOQ ≤ + <5%)	++ (5% ≤ ++ <25%)	+ (LOQ ≤ + <5%)	+++ (25% ≤ +++ <50%)		
Cc1ccc2c(c1)CCOCC2N.Cl (centres unmarked) [Example 36]		+ (LOQ ≤ + <5%)	++ (5% ≤ ++ <25%)	++ (5% ≤ ++ <25%)	+++ (25% ≤ +++ <50%)	++ (5% ≤ ++ <25%)	+ (LOQ ≤ + <5%)	++ (5% ≤ ++ <25%)	++ (5% ≤ ++ <25%)	++ (5% ≤ ++ <25%)	3 to 10	
Cl.NC1COCc2ccc3ncccc3c21 (centres unmarked) [Example 15]		+ (LOQ ≤ + <5%)	+ (LOQ ≤ + <5%)	+ (LOQ ≤ + <5%)	+ (LOQ ≤ + <5%)	+ (LOQ ≤ + <5%)	+ (LOQ ≤ + <5%)	+ (LOQ ≤ + <5%)	+ (LOQ ≤ + <5%)	+ (LOQ ≤ + <5%)	> 30	
C[C@@H]1OCc2cccc(F)c2[C@@H]1N.Cl [Example 217]	10 to 30	+ (LOQ ≤ + <5%)	+ (LOQ ≤ + <5%)	+++ (25% ≤ +++ <50%)	++ (5% ≤ ++ <25%)	++ (5% ≤ ++ <25%)	+ (LOQ ≤ + <5%)	++ (5% ≤ ++ <25%)	+ (LOQ ≤ + <5%)	++++ (50% ≤ ++++)		
cis-3-Isopropylisochroman-4-amine hydrochloride [Example 273]		+ (LOQ ≤ + <5%)	++ (5% ≤ ++ <25%)	+ (LOQ ≤ + <5%)	+ (LOQ ≤ + <5%)	++ (5% ≤ ++ <25%)	++ (5% ≤ ++ <25%)	+ (LOQ ≤ + <5%)	+++ (25% ≤ +++ <50%)	++ (5% ≤ ++ <25%)		A (≤3 mpk)
Cc1ccc2c(c1)[C@H](N)[C@@H](C)COC2.Cl (relative stereo) [Example 75, trans-4,7-dimethyl-1,3,4,5-tetrahydrobenzo [c]oxepin-5-amine hydrochloride]		+ (LOQ ≤ + <5%)	++ (5% ≤ ++ <25%)	++ (5% ≤ ++ <25%)	++ (5% ≤ ++ <25%)	+ (LOQ ≤ + <5%)	+ (LOQ ≤ + <5%)	++ (5% ≤ ++ <25%)	+ (LOQ ≤ + <5%)	+++ (25% ≤ +++ <50%)	10 to 30	
Cc1ccc2c(c1)[C@H](N)CO[C@H]2C.Cl [Example 107]		+ (LOQ ≤ + <5%)	++ (5% ≤ ++ <25%)	++ (5% ≤ ++ <25%)	++ (5% ≤ ++ <25%)	+ (LOQ ≤ + <5%)	+ (LOQ ≤ + <5%)	++ (5% ≤ ++ <25%)	+ (LOQ ≤ + <5%)	+++ (25% ≤ +++ <50%)	3 to 10	
Cc1ccc2c(c1C)[C@H](N)[C@@H](C)OC2.Cl [Example 79]		+ (LOQ ≤ + <5%)	++ (5% ≤ ++ <25%)	+++ (25% ≤ +++ <50%)	++ (5% ≤ ++ <25%)	++ (5% ≤ ++ <25%)	+ (LOQ ≤ + <5%)	++ (5% ≤ ++ <25%)	++ (5% ≤ ++ <25%)	++ (5% ≤ ++ <25%)	3 to 10	
